Results as given in patent US6914045B2, “Glycopeptide antibiotics” (Wyeth Holdings Corporation, priority 2001, dated 2005).

How the values were obtained:
[1] = test system: Staphylococcus aureus-SMITH (GC 4543); assay: acute lethal infection in mice; type: in vivo; details: acute lethal infection, female CD-1 mice, intraperitoneal challenge, intravenous 30 min. after infection, 7 day survival
Procedure, shortened: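 Survival at 7 days, pooled from three independent tests, yields ED50 values. Treatment is intravenous, 30 min after ip infection of female CD-1 mice, using an inoculum lethal to untreated controls within 24-48 hr.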

Enterococcus sp. = assay: in vitro antibacterial evaluation, MIC by broth dilution; type: cell-based; details: broth dilution, 18 hours at 35° C.
Procedure, shortened: (§1)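 Broth dilution per NCCLS standard M7-A2 in Muller-Hinton II […], with an inoculum of 5×10^5 CFU/mL and antibiotic spanning 64-0.06 μg/mL. The MIC is the lowest concentration that inhibits growth of the organism.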

Streptococcus sp. = assay: as above; type: cell-based; details: broth dilution, 18 hours at 35° C.
Procedure, shortened: as §1

Staphylococcus sp. = assay: as above; type: cell-based; details: broth dilution, 18 hours at 35° C.; for MIC Staphylococcus aureus (GC 1131): strain GC 1131
Procedure, shortened: as §1

Escherichia coli = assay: as above; type: cell-based
Procedure, shortened: as §1

CC(c1ccccc1)C1NC(=O)CNC(=O)C(CO)NC(=O)C(C(O)C2CNC(=N)N2C2OC(CO)C(O)C(O)C2O)NC(=O)C(C(O)C2CNC(=N)N2)NC(=O)C(Cc2ccc(OC3OC(CO)C(OC4OC5COC(c6ccc7c(c6)OCO7)OC5C(O)C4O)C(O)C3O)cc2)NC1=O (stereo not drawn) [Example 143, Cyclo[glycyl-β-methylphenylalanyl-O-[4-O-[4,6-O-(1,3-benzodioxol-5-ylmethylene)hexopyranosyl]hexopyranosyl]tyrosyl-3-(2-iminoimidazolidin-4-yl)seryl-3-(3-hexopyranosyl-2-iminoimidazolidin-4-yl)serylseryl]]
2 to 8 µg/mL: MIC Enterococcus faecium (GC 4557) (Enterococcus sp.; Enterococcus faecium (GC 4557)) | MIC Enterococcus faecium (GC 4557) (Enterococcus sp.; strain GC 4557) | MIC Staphylococcus aureus (GC 4544) (Staphylococcus sp.; strain GC 4544)
0.28 mg/kg: median effective dose (ED50), Staphylococcus aureus-SMITH (GC 4543) [1]
8 µg/mL: MIC Enterococcus faecalis (GC 2691) (Enterococcus sp.; Enterococcus faecalis (GC 2691)) | MIC Enterococcus faecalis (GC 2691) (Enterococcus sp.; strain GC 2691)
0.12 to 0.5 µg/mL: MIC Streptococcus pneumoniae (ATCC 6301) (Streptococcus sp.; Streptococcus pneumoniae (ATCC 6301)) | MIC Streptococcus pneumoniae (ATCC 6301) (Streptococcus sp.; strain ATCC 6301)
0.5 to 2 µg/mL: MIC Staphylococcus haemolyticus (GC 4546) (Staphylococcus sp.; strain GC 4546)
8 to 16 µg/mL: MIC Enterococcus avium (GC 4558) (Enterococcus sp.; Enterococcus avium (GC 4558)) | MIC Enterococcus faecalis (ATCC 29212) (Enterococcus sp.; Enterococcus faecalis (ATCC 29212)) | MIC Enterococcus faecalis (GC 3059) (Enterococcus sp.; Enterococcus faecalis (GC 3059)) | MIC Enterococcus faecalis (GC 4552) (Enterococcus sp.; Enterococcus faecalis (GC 4552)) | MIC Enterococcus faecalis (GC 4553) (Enterococcus sp.; Enterococcus faecalis (GC 4553)) | MIC Enterococcus faecalis (GC 4554) (Enterococcus sp.; Enterococcus faecalis (GC 4554)) | MIC Enterococcus faecium (GC 2243) (Enterococcus sp.; Enterococcus faecium (GC 2243)) | MIC Enterococcus faecium (GC 4556) (Enterococcus sp.; Enterococcus faecium (GC 4556)) | MIC Enterococcus faecalis (ATCC 29212) (Enterococcus sp.; strain ATCC 29212) | MIC Enterococcus faecium (GC 2243) (Enterococcus sp.; strain GC 2243) | MIC Enterococcus faecalis (GC 3059) (Enterococcus sp.; strain GC 3059) | MIC Enterococcus faecalis (GC 4552) (Enterococcus sp.; strain GC 4552) | MIC Enterococcus faecalis (GC 4553) (Enterococcus sp.; strain GC 4553) | MIC Enterococcus faecalis (GC 4554) (Enterococcus sp.; strain GC 4554) | MIC Enterococcus faecium (GC 4556) (Enterococcus sp.; strain GC 4556) | MIC Enterococcus avium (GC 4558) (Enterococcus sp.; strain GC 4558)
64 µg/mL: MIC Escherichia coli (GC 4559) (Escherichia coli; strain GC 4559, 18 hours at 35° C.)
>64 µg/mL: MIC Escherichia coli (ATCC 25922) (Escherichia coli; strain ATCC 25922, 18 hours at 35° C.)
1 µg/mL: MIC Coagulase Negative Staphylococcus (GC 4549) (Staphylococcus sp.; strain GC 4549)
1 to 2 µg/mL: MIC Coagulase Negative Staphylococcus (GC 4547) (Staphylococcus sp.; strain GC 4547) | MIC Coagulase Negative Staphylococcus (GC 4548) (Staphylococcus sp.; strain GC 4548) | MIC Coagulase Negative Staphylococcus (GC 6257) (Staphylococcus sp.; strain GC 6257) | MIC Escherichia coli (GC 4560) (Escherichia coli; strain GC 4560, 18 hours at 35° C.)
4 to 16 µg/mL: MIC Enterococcus faecalis (GC 2242) (Enterococcus sp.; Enterococcus faecalis (GC 2242)) | MIC Enterococcus faecalis (GC 6189) (Enterococcus sp.; Enterococcus faecalis (GC 6189)) | MIC Enterococcus faecalis (GC 2242) (Enterococcus sp.; strain GC 2242) | MIC Enterococcus faecalis (GC 6189) (Enterococcus sp.; strain GC 6189)
0.5 to 1 µg/mL: MIC Streptococcus agalactiae (GC 4564) (Streptococcus sp.; Streptococcus agalactiae (GC 4564)) | MIC Streptococcus agalactiae (GC 4564) (Streptococcus sp.; strain GC 4564)
<0.06 to 0.12 µg/mL: MIC Streptococcus pneumoniae (GC 1894) (Streptococcus sp.; Streptococcus pneumoniae (GC 1894)) | MIC Streptococcus pneumoniae (GC 1894) (Streptococcus sp.; strain GC 1894)
0.25 to 1 µg/mL: MIC Streptococcus pyogenes (GC 4563) (Streptococcus sp.; Streptococcus pyogenes (GC 4563)) | MIC Streptococcus pyogenes (GC 4563) (Streptococcus sp.; strain GC 4563)
0.25 to 0.5 µg/mL: MIC Streptococcus pneumoniae (GC 4565) (Streptococcus sp.; Streptococcus pneumoniae (GC 4565)) | MIC Streptococcus pneumoniae (GC 4565) (Streptococcus sp.; strain GC 4565)
2 to 4 µg/mL: MIC Staphylococcus aureus (GC 1131) (Staphylococcus sp.; inoculum 5×10^5 CFU/mL) | MIC Staphylococcus aureus (ATCC 29213) (Staphylococcus sp.; strain ATCC 29213) | MIC Staphylococcus aureus (GC 1131) (Staphylococcus sp.) | MIC Staphylococcus aureus (GC 3051) (Staphylococcus sp.; strain GC 3051) | MIC Staphylococcus aureus (GC 4541) (Staphylococcus sp.; strain GC 4541) | MIC Staphylococcus aureus-SMITH (GC 4543) (Staphylococcus sp.; strain GC 4543) | MIC Staphylococcus aureus (GC 4545) (Staphylococcus sp.; strain GC 4545) | MIC Coagulase Negative Staphylococcus (GC 4551) (Staphylococcus sp.; strain GC 4551) | MIC Staphylococcus aureus-SMITH (GC 4543) (Staphylococcus sp.; strain SMITH GC 4543)
1 to 4 µg/mL: MIC Staphylococcus aureus (GC 4542) (Staphylococcus sp.; strain GC 4542)
4 to 8 µg/mL: MIC Staphylococcus aureus (GC 3053) (Staphylococcus sp.; strain GC 3053)
